This experiment deals with Dunkin-Harley guinea pigs (OVA broncho-constriction). Nature of the experiment: OVA-induced bronchospasm in sensitized, anaesthetized guinea pigs (modified Konzett-Rössler method, pyrilamin pre-treatment). In kind it is in vivo, guinea pig. As to the method:
Male and female Dunkin-Harley guinea pigs were obtained from the Experimental Animal Breeding Centre of Harlan Winkelmann (Germany). After fasting overnight, but with free access to drinking water, animals with body weight of 400-500 g were used.
Bronchospasm was recorded with a modified version of the method of Konzett-Röβler (described by Walland et al, in “Compensation of muscarinic bronchial effects of talsaclidine by concomitant sympathetic activation in guinea pigs”, European Journal of Pharmacology, Volume 330, Issue 2-3, 9 July 1997, Pages 213-219). The animals were ventilated by means of a piston pump (starling ventilator, Hugo Sachs Elektronik, Germany) at a stroke volume of 1 ml/100 g body weight and at a rate of 60 strokes per min. The tubing which connected the tracheal cannula with the ventilator was provided with a branch leading to the bronchospasm transducer (bronchospasm transducer 7020, Ugo Basile, Italy). The air flow measurement is based on the hot wire anemometer principle. Any air flow will reduce the temperature of the wire, thereby decreasing its resistance in proportion of the flow. As the wire element is one arm of a Weaststone bridge, variations in resistance generate a proportional voltage output which feeds the amplifier/recording system (Notocord-hem, Notocord, France). Blood pressure and heart rate are monitored from a carotid artery in order to check the anesthesia and the variability of the preparation.
Guinea pigs were sensitized on 2 consecutive days with 20 μg ovalbumin (OVA) (Sigma, St. Louis, Mo.) and 20 mg Al(OH)3 in 0.5 mL saline, which were administered subcutaneously. Experiments, which included OVA challenge, were conducted 2 weeks after sensitization. Approximately 1 hour before OVA challenge, the animals were anaesthetized with an intraperitoneal injection of 50 mg/kg pentobarbital. Anesthesia was prolonged by intravenous infusion of pentobarbital (15 mg/kg/h) via the jugular vein. A tracheal cannula was introduced after tracheotomy for artificial ventilation. The internal jugular vein was cannulated for drug injection while the left carotid artery was cannulated for measuring blood pressure and heart rate. The test compounds or combinations of compounds were administered orally 2 hours before the OVA challenge. Pyrilamin (anti-histaminic) is injected intravenously at 2 mg/kg, 6 minutes before OVA challenge in order to record the non histamine-related bronchospasm. The OVA challenge induces mast cell degranulation responsible for the bronchospasm due to the release into the lung of inflammatory mediators such as histamine, leukotrienes, prostaglandins and tromboxanes. The pre-treatment of the guinea pigs with pyrilamin prevents the part of the bronchospasm induced by histamine (around 40 to 50% of the bronchospasm). 30 Minutes after the beginning of air flow and blood pressure measurements, bronchoconstriction is triggered by an OVA challenge given at a fixed dose of 50 μg/kg inhaled.
The control group comprises 12 guinea-pigs, test compounds comprise 2 to 4 guinea-pigs. At the end of the experiment, animals are euthanized by an overdose of pentobarbital (100 mg/kg i.v.).
OVA challenge in control guinea-pigs induces an overflow of 33 (±10) ml which is used as 100% bronchospasm. Bronchoprotection of the drug (i.e. inhibition of OVA broncho-constriction) is expressed as a percentage of inhibition of the increase in overflow induced by OVA in the control animals.

[1] abbreviates: CRTH2 antagonist (1) 0.001 mg/kg p.o. alone.
Where [2] appears, read: CRTH2 antagonist (1) 0.003 mg/kg p.o. alone.
Where [3] appears, read: CRTH2 antagonist (1) 0.01 mg/kg p.o. alone.
The mark [4] stands for this setting: CRTH2 antagonist (1) 0.03 mg/kg p.o. alone.
[5] abbreviates: CRTH2 antagonist (1) 0.1 mg/kg p.o. alone.
The mark [6] stands for this setting: CRTH2 antagonist (1) 0.3 mg/kg p.o. alone.
Where [7] appears, read: CRTH2 antagonist (1) 1.0 mg/kg p.o. alone.
The mark [8] stands for this setting: CRTH2 antagonist (1) 3.0 mg/kg p.o. alone.
Where [9] appears, read: CRTH2 antagonist (1) 10.0 mg/kg p.o. alone.

The structures appear in SMILES notation.

As for `O=C(Nc1c(Cl)cncc1Cl)c1ccc(OC(F)F)c(OCC2CC2)c1` [Roflumilast, roflumilast, reference compound], the overflow (Roflumilast 0.03 mg/kg p.o. alone, 2 hours before OVA challenge) was 28 mL. Further, the bronchoprotection (Roflumilast 0.03 mg/kg p.o. alone, 2 hours before OVA challenge, inhibition of OVA-induced overflow vs control) was 15%.
Take `CN(C)c1nc(Cc2ccc(NC(=O)c3ccc(C(F)(F)F)cc3)cc2)nc(N(C)C)c1CC(=O)O` [CRTH2 antagonist (1), [4,6-bis(dimethylamino)-2-(4-(4-(trifluoromethyl)benzamido)-benzyl)pyrimidin-5-yl]acetic acid]: the bronchoprotection by setting is: under setting [1], 0%; under setting [2], 0%; under setting [3], 0%; under setting [4], 0%; under setting [5], 0%; under setting [6], 24%. The bronchoprotection runs as follows: under setting [7], 42%; under setting [8], 64%; under setting [9], 70%. The overflow amounted to 38 mL under setting [1]; 35 mL under setting [2]; 40 mL under setting [3]; 33 mL under setting [4]; 41 mL under setting [5]; 25 mL under setting [6]. Besides, the overflow came out at 19 mL under setting [7], 12 mL under setting [8] and 10 mL under setting [9].

Source of the values: US20120196875A1, “PHARMACEUTICAL COMPOSITIONS FOR TREATMENT OF RESPIRATORY AND INFLAMMATORY DISEASES” (BOEHRINGER INGELHEIM INTERNATIONAL GMBH, priority 2010, published 2012).
